Laboratory results published in article PMC12527173, “Cytotoxic, anti-inflammatory, antioxidant, and anti-glyoxalase-I evaluation of chelating substances: In silico and in vitro study” (PLOS One, 2025).
Where two headings read alike, the source gives them in different places.

Legend:
[1] = molecular target: T1, human recombinant Glo-I enzyme (rhGlo-I) (Homo sapiens, UniProt Q04760); experiment: Glyoxalase-I (Glo-I) enzyme inhibition assay; format: biochemical; conditions: for Maximum (descriptive statistics of enzyme inhibition): highest mean inhibition over the tested concentrations; for Maximum (descriptive statistics of enzyme inhibition) / Minimum (descriptive statistics of enzyme inhibition): in % (unit assumed); for Minimum (descriptive statistics of enzyme inhibition): lowest mean inhibition over the tested concentrations
T1 construct: N-terminal Met and 6-His tag (N); purchased R&D Systems; host or cells: E. coli
T1 sequence (Q04760 2-184 limits assumed): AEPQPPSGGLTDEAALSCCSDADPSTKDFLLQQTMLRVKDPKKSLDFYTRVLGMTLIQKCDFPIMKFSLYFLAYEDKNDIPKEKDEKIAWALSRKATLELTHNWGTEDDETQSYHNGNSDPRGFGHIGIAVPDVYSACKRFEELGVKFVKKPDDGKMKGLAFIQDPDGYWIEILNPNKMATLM
Description: Solvents and chemicals were procured from Sigma-Aldrich Co. and Acros (ThermoFisher Scientific, New Jersey, USA). […] The enzyme was obtained from R&D Systems® Corporation in the USA. Synthetic compounds were tested for their inhibitory effects on the enzyme using a 10 mM DMSO stock concentration in triplicates. The manufacturer’s protocol from R & D Systems, Inc. in Minneapolis, MN, USA was followed for the in vitro experiments. The reconstituted Glo-I enzyme (0.5 mg/mL) was thawed after being stored at −70°C in sterile deionized water. […] The monitoring was done at a wavelength of 240 nm for 200 seconds at 37°C. The substrate mixture was freshly concocted with a concentration of 100 mM glutathione and 100 mM methylglyoxal (MG) in assay buffer containing 0.5 M sodium phosphate dibasic/monobasic. It was then left undisturbed at room temperature for 15 minutes […]. The selected compounds for investigation are subsequently produced in testing concentration ranges using a 0.1 M solution of sodium phosphate dibasic/monobasic with a pH range of 7–7.2. The blank contained an assay buffer with MG substrate. The test compounds were combined with human recombinant Glo-I (50 µM) in a 96-well plate to determine their kinetic behavior.

[2] = test system: CACO2 colorectal cancer cell line; experiment: SRB cytotoxicity assay, CACO2; format: cell-based; conditions: Homo sapiens, Caco-2, 72 h incubation, n = 12, read-out: Cytotoxicity (as of %Control) IC50 value CACO2
How it was run: (§1)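 SRB colorimetric read-out, expressed as % of control optical density; IC50 derived by regression analysis of dose-response curves. Test substances and a reference drug were applied at 5 to 200 μg/mL, with periodontal ligament fibroblasts as the non-cancer comparator.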

[3] = test system: SW480 colorectal cancer cell line; experiment: SRB cytotoxicity assay, SW480; format: cell-based; conditions: Homo sapiens, 72 h incubation, n = 12, read-out: Cytotoxicity (as of %Control) IC50 value SW480
How it was run: as §1

[4] = test system: HCT116 colorectal cancer cell line; experiment: SRB cytotoxicity assay, HCT116; format: cell-based; conditions: Homo sapiens, HCT-116, 72 h incubation, n = 12, read-out: Cytotoxicity (as of %Control) IC50 value HCT116
How it was run: as §1

[5] = test system: HT-29 colorectal cancer cell line; experiment: SRB cytotoxicity assay, HT29; format: cell-based; conditions: Homo sapiens, 72 h incubation, n = 12, read-out: Cytotoxicity (as of %Control) IC50 value HT29
How it was run: as §1

[6] = test system: PANC1 pancreatic cell line; experiment: SRB cytotoxicity assay, PANC1; format: cell-based; conditions: Homo sapiens, PANC-1, 72 h incubation, n = 12, read-out: Cytotoxicity (as of %Control) IC50 value PANC1
How it was run: as §1

[7] = test system: A375 human skin cancer cell line; experiment: SRB cytotoxicity assay, A375; format: cell-based; conditions: A-375, 72 h incubation, n = 12, read-out: Cytotoxicity (as of %Control) IC50 value A375 skin melanoma
How it was run: as §1

[8] = test system: Breast cancer cell line MCF7; experiment: SRB cytotoxicity assay, MCF7; format: cell-based; conditions: Homo sapiens, 72 h incubation, n = 12, read-out: Cytotoxicity (as of %Control) IC50 value MCF7 mammary malignancy
How it was run: as §1

[9] = test system: T47D breast cancer cell line; experiment: SRB cytotoxicity assay, T47D; format: cell-based; conditions: Homo sapiens, 72 h incubation, n = 12, read-out: Cytotoxicity (as of %Control) IC50 value T47D mammary malignancy
How it was run: as §1

[10] = test system: HeLa uterine cervix adenocarcinoma cell line; experiment: SRB cytotoxicity assay, HeLa; format: cell-based; conditions: Homo sapiens, 72 h incubation, n = 12, read-out: Cytotoxicity (as of %Control) IC50 value Hela cervix malignancy
How it was run: as §1

[11] = 3.125 µM, read-out: Trial one (%inhibtion)
[12] = 3.125 µM, read-out: Trial three (%inhibtion)
[13] = 3.125 µM, read-out: Trial two (%inhibtion)
[14] = 6.25 µM, read-out: Trial one (%inhibtion)
[15] = 6.25 µM, read-out: Trial three (%inhibtion)
[16] = 6.25 µM, read-out: Trial two (%inhibtion)
[17] = 12.5 µM, read-out: Trial one (%inhibtion)
[18] = 12.5 µM, read-out: Trial three (%inhibtion)
[19] = 12.5 µM, read-out: Trial two (%inhibtion)
[20] = 25 µM, read-out: Trial one (%inhibtion)
[21] = 25 µM, read-out: Trial three (%inhibtion)
[22] = 25 µM, read-out: Trial two (%inhibtion)
[23] = 50 µM, read-out: Trial one (%inhibtion)
[24] = 50 µM, read-out: Trial three (%inhibtion)
[25] = 50 µM, read-out: Trial two (%inhibtion)
[26] = human recombinant Glo-I, triplicates, read-out: IC50 µM ± SD
[27] = read-out: Trial one (%inhibtion)
[28] = read-out: Trial three (%inhibtion)
[29] = read-out: Trial two (%inhibtion)

Compound	inhibition at 3.125 µM [1, 11]	inhibition at 3.125 µM [1, 12]	inhibition at 3.125 µM [1, 13]	inhibition at 6.25 µM [1, 14]	inhibition at 6.25 µM [1, 15]	inhibition at 6.25 µM [1, 16]	inhibition at 12.5 µM [1, 17]	inhibition at 12.5 µM [1, 18]	inhibition at 12.5 µM [1, 19]	Maximum (descriptive statistics of enzyme inhibition) [1]	Minimum (descriptive statistics of enzyme inhibition) [1]	IC50 [2]	IC50 [3]	IC50 [4]	IC50 [5]	IC50 [6]	IC50 [7]	IC50 [8]	IC50 [9]	IC50 [10]	also measured
O=C1c2ccc(O)c(O)c2C(=O)c2c(O)ccc(O)c21 [Quinalizarin]	22.8%	28.6%	19.5%	32.6%	33.7%	28.6%	37.2%	41.8%	35.4%	56.90	23.66	109 ± 9.26 µM	118 ± 3.04 µM	72.2 ± 5.7 µM	144 ± 15.6 µM	127 ± 2.52 µM	48.6 ± 1.8 µM	33.2 ± 0.78 µM	37.7 ± 4.78 µM	85.51 ± 0.44 µM	inhibition at 25 µM [1, 20]: 42.7%; inhibition at 25 µM [1, 21]: 43.6%; inhibition at 25 µM [1, 22]: 46.6%; inhibition at 50 µM [1, 23]: 55.5%; inhibition at 50 µM [1, 24]: 55.3%; inhibition at 50 µM [1, 25]: 59.9%; IC50 [1, 26]: 33.4 ± 12.6 µM
CC(C)=CC[C@@H](O)C1=CC(=O)c2c(O)ccc(O)c2C1=O [Shikonin]										100.7	23.58	43.8 ± 4.97 µM	41.6 ± 6.37 µM	108 ± 2.6 µM	142.3 ± 0.76 µM	80 ± 2.11 µM	56.5 ± 6.9 µM	37.8 ± 3.89 µM	30.9 ± 3.66 µM	13.9 ± 1.91 µM	IC50 [1]: 8.1 µM; inhibition at 3.125 µM [1, 27]: 16.9%; inhibition at 6.25 µM [1, 27]: 34.8%; inhibition at 12.5 µM [1, 27]: 59.4%; inhibition at 25 µM [1, 27]: 72.5%; inhibition at 50 µM [1, 27]: 104%; inhibition at 3.125 µM [1, 28]: 30%; inhibition at 6.25 µM [1, 28]: 51.3%; inhibition at 12.5 µM [1, 28]: 61%; inhibition at 25 µM [1, 28]: 73.9%; inhibition at 50 µM [1, 28]: 101%; inhibition at 3.125 µM [1, 29]: 23.8%; inhibition at 6.25 µM [1, 29]: 45.8%; inhibition at 12.5 µM [1, 29]: 65.1%; inhibition at 25 µM [1, 29]: 74.2%; inhibition at 50 µM [1, 29]: 96.9%
Cc1ccc(C(=O)c2cc(O)c(O)c([N+](=O)[O-])c2)cc1 [Tolcapone, reference compound]	12.3%	20.4%	19.4%	28%	36.3%	39.7%	54.2%	56.5%	60.9%	98.66	17.38	94.8 ± 6.65 µM	165 ± 6.58 µM	86.2 ± 6.6 µM	63.3 ± 1.03 µM	119 ± 9.28 µM	64.1 ± 1.1 µM	25.6 ± 1.49 µM	26.9 ± 0.35 µM	39.35 ± 0.35 µM	inhibition at 25 µM [1, 20]: 78.1%; inhibition at 25 µM [1, 21]: 80.9%; inhibition at 25 µM [1, 22]: 82.1%; inhibition at 50 µM [1, 23]: 96.1%; inhibition at 50 µM [1, 24]: 102%; inhibition at 50 µM [1, 25]: 97.6%; IC50 [1, 26]: 9.6 µM
CC(/C=C/C(=O)NO)=C\[C@@H](C)C(=O)c1ccc(N(C)C)cc1 [Trichostatin A, reference compound]	13.2%	7.44%	2.77%	22.3%	14.2%	16.5%	29.4%	24.7%	25%	47.33	7.808	27.1 ± 1.28 µM	44.3 ± 4.67 µM	14 ± 2.5 µM	27 ± 0.85 µM	95.8 ± 8.2 µM	5.6 ± 0.6 µM	2.25 ± 0.49 µM	14.7 ± 0.28 µM	1.4 ± 0.2 µM	inhibition at 25 µM [1, 20]: 39.7%; inhibition at 25 µM [1, 21]: 33.7%; inhibition at 25 µM [1, 22]: 38.4%; inhibition at 50 µM [1, 23]: 52.1%; inhibition at 50 µM [1, 24]: 38.8%; inhibition at 50 µM [1, 25]: 51.1%; IC50 [1, 26]: 43.5 ± 15.6 µM
